SMILES | melting point [°C]
COP(=O)(OC)C(O)c1ccccc1 (centres undefined) | 85 to 86
CC(C)(C)[Si](C)(C)Oc1cccc2[nH]ccc12 | 80 to 81
Cc1cc(Br)cnc1CCCCNc1ncc(Cc2ccc3c(c2)OCO3)c(=O)[nH]1 | 145 to 146
Cn1nc(C(F)F)cc1O | 133
Cc1cc(-c2c(-c3ccc(S(C)(=O)=O)cc3)cnn(-c3ccc(F)cc3)c2=O)ccc1F | 168 to 170
CCCCCCCCCCCCCCCCCCOc1cc(OCCCOc2ccc(O)cc2)cc(C(=O)OC)c1 | 85 to 88
CN(C1CCCCC1)S(=O)(=O)c1ccc(CCSn2cnc3ccccc32)cc1 | 60 to 63
Cc1c(Cc2ccncc2)nnc(Nc2ccc(Cl)cc2)c1C | 196 to 199
CCNC(C)c1cc(S(N)(=O)=O)sc1S(=O)(=O)CC (centres undefined) | 135 to 138
Cc1ccccc1-c1ccc(C=O)cn1 | 82 to 84
CCOC(=O)C(F)Cc1ccc(OCCN(C)c2nc3ccccc3o2)cc1 (centres undefined) | 65 to 67
O=c1[nH]c2cscc2c(=O)n1CCCCCN1CCC(=C(c2ccc(F)cc2)c2ccc(F)cc2)CC1 | 118 to 122
Cn1cc(Br)cc(Nc2ccc(OC3CN(C(=O)OC(C)(C)C)C3)cn2)c1=O | 120 to 121
CN1C(=O)[C@](C)(C(=O)O)Oc2ccccc21 | 139 to 142
CCCSc1ccc(NS(=O)(=O)c2cccs2)c2[nH]c(C(=O)OCC)cc12 | 150 to 151
CCCCCCCc1ccc(CCCC(N)(CO)CCO)cc1 (centres undefined) | 68 to 71
COc1cc2ccc3c4cc(OC)c(OC)cc4ncc3c2cc1OC | 122 to 124
C=CCOc1ccc(-c2nc3cnccc3[nH]2)c(OC(C)C)c1 | 179
Clc1ccc(-c2cc(C3CCN(CC4CCCCC4)CC3)n[nH]2)cc1 | 186 to 187
O=[N+]([O-])c1cc(Cn2nnnc2Sc2ccccc2)cc([N+](=O)[O-])c1 | 156 to 158
CCOC(=O)Cc1ccc(NC(=O)C(COc2cccc(Cl)c2)NS(=O)(=O)c2ccc(I)cc2)cc1 (racemic) | 169 to 170
Oc1ccc(Nc2nc(NCc3ccco3)nc(Nc3cccc(Oc4ccccc4)c3)n2)cc1 | 80 to 83
O=C1Nc2cc(Cl)c(Cl)cc2C1c1ccccc1Cl (centres undefined) | 198 to 201
CC1N=C(c2ccccc2)OC(c2ccccc2)C1OC(=O)Nc1ccccc1 (centres undefined) | 150
CC1=N/C(=C\c2c[nH]c3ncccc23)C(=O)N1Cc1ccccc1 | 274 to 275
CCOC(=O)c1cnn(-c2ccc(OCC(C)C)c(C#N)c2)c1 | 138 to 139

SMILES | melting point [°C]
CCCC(CCC)(CCC)C(=O)O | 67
COc1ccc2cc(Br)cc(C)c2n1 | 89 to 91
FC(F)(F)c1ccc(-c2nc(Oc3csc(C(F)(F)F)c3)cc(Oc3csc(C(F)(F)F)c3)n2)cc1 | 93 to 95
COC(=O)c1ccc2c(c1)C(=O)C(=Cc1ccc(OC)c(OC)c1OC)O2 | 181 to 183
CCn1c(=O)ccn(-c2ccc([N+](=O)[O-])cc2)c1=O | 182
Cc1cn(C2CC(O[Si](c3ccccc3)(c3ccccc3)C(C)(C)C)C(CI)O2)c(=O)[nH]c1=O (centres undefined) | 142
FC(F)c1nc2ccccc2n1-c1nc(-c2cncnc2)cc(N2CCOCC2)n1 | 209 to 211
CCCCCCCCCC(O)Cc1ccc(O)c(O)c1 (centres undefined) | 56 to 58
Cc1nc(CO)c2n1-c1ccc(Cl)cc1C(c1ccccc1Cl)=NC2 | 215 to 217
C#CCc1cc(C(O)=S)cc(S(=O)(=O)Cl)c1Oc1ccccc1 | 177 to 179
COc1ccc(CCNC(=O)Cc2ccc(C(=O)c3ccccc3)cc2)cc1OC | 113 to 114
CC(C)(O)c1ccc(CNC(=O)c2cccnc2Oc2ccc3nsnc3c2)c(F)c1 | 124 to 125
Cn1cc(S(C)(=O)=O)c(=O)c2ccc(Cl)cc21 | 241 to 242
COc1ccc2nc3c(C(=O)O)cccn3c(=O)c2c1 | 272 to 274
COc1ccc(N2CCN(Cc3n[nH]c4c(F)cccc34)CC2)cc1 | 178 to 179
CC(=O)NC(C)(C)c1ccc(CCl)cc1 | 101 to 103
CC(=O)Oc1ccc(C(C)=NOCCOc2ccc(CC3SC(=O)NC3=O)cc2)cc1 (centres undefined) | 133 to 135
CCCNC(=O)n1nc(Oc2c(Cl)cc(C(F)(F)F)cc2Cl)cc1C(Cl)(Cl)Cl | 89 to 91
COc1cccc2c1C1CN(C)CCN1c1ccccc1C2O (centres undefined) | 217
CCOC(=O)c1cnn(-c2ccc(OC(F)(F)F)cc2)c1 | 114 to 116
N#Cc1cnc2cc(F)ccc2c1Cl | 163 to 165
CC(C)(CO)COc1ccc(N)cc1C#N | 194 to 196
c1ccc(OCCSCc2nnc(-c3ccc(OCc4cccnc4)cc3)o2)cc1 | 111 to 112
Fc1ccc(C(OCCN2CCN(C(c3ccc(F)cc3)c3ccc(F)cc3)CC2)c2ccc(F)cc2)cc1 | 87 to 88
COCC1COc2cc3ncnc(Nc4cc(Cl)cc(Cl)c4)c3cc2O1 (centres undefined) | 269 to 274
COc1ccc([N+](=O)[O-])c(CBr)c1 | 64 to 65

SMILES | melting point [°C]
CCc1nnc(-c2cccc(N(C)C)c2)n1-c1ccc(OC)cc1 | 170
CC(C)(C)n1nnc(-c2ccccc2-c2cccc3ccccc23)n1 | 83 to 85
CCNc1nc2ccc(CCc3nc4cc(C)ccn4c3C)cc2s1 | 165 to 166
O=C1c2cccc(O)c2CC12CCCCC2 | 162 to 164
Cc1cc(Br)cnc1CCCCNc1ncc(Cc2ccn(C)c(=O)c2)c(=O)[nH]1 | 203 to 204
COc1cc2[nH]cc(C(=O)C(Cl)(Cl)Cl)c2cc1Br | 185 to 190
O=C(CCc1cccc(F)c1F)c1cnc2sc3c(n12)CCCCC3 | 108 to 110
Clc1cc(Nc2ccccc2)c(Cl)nn1 | 137 to 139
Cc1c(-c2cc(F)cc(C(F)(F)F)c2)ccc2nc(N)nc(N)c12 | 225 to 226
CCCCOC(=O)Cc1nc(-c2ccc(Cl)cc2)oc1-c1ccsc1 | 79 to 81
CCC(=O)Nc1cc(-c2c(-c3cccc(Cl)c3)nc3cccnn23)ccn1 | 192 to 193
COC(=O)c1ccc(-c2nc(-c3ccc(Cl)s3)co2)cc1 | 189 to 190
O=c1[nH]c2c(CCN3CCN(c4ncccn4)CC3)cccc2o1 | 189 to 190
Cc1cnc2c(NC(=O)c3c(Cl)cccc3Cl)cccc2c1N1CCNC1=O | > 250
OC1(c2cncc(Br)c2)CCCC1 | 74
CCCCc1oc2ccccc2c1C(OC)c1cc(I)c(OCCN(CC)CC)c(I)c1 (centres undefined) | 96 to 98
O=C(O)C=Cc1cc([N+](=O)[O-])c(F)cc1Cl | 164 to 171
NC(=O)COc1ccc2c(-c3ccccc3F)noc2c1Cl | 172
Cc1nc(C(F)(F)F)ccc1/C=C/C(=O)Nc1ccc2cc[nH]c2c1 | 223
COC(=O)c1ccc(CN2CCN(S(=O)(=O)c3ccccc3)CC2)cc1 | 145 to 146
COCCOCCOc1cccc2c1C1(COc3cc4c(cc31)OCCO4)C(=O)N2C (centres undefined) | 109 to 110
O=C(CCl)Nc1ccc2c(c1NC(=O)c1cccc(Cl)c1)C(=O)c1ccccc1C2=O | 188 to 189
Cn1ncc(C(=O)O)c1C(=O)Nc1ccc2nc(-c3ccccc3)nn2c1 | 259
CS(=O)(=O)c1ccc(C(=O)C(=O)c2ccc(F)cc2)cc1 | 174 to 175
CCOC(=O)c1cnc2sccc2c1O | 137 to 139
COc1ccc(Nc2ccn(Cc3ccccc3)n2)cc1 | 68 to 71

SMILES | melting point [°C]
CC(CN(C)C)CC(CNC(=O)N(CCCl)N=O)(c1ccccc1)c1ccccc1 (centres undefined) | 105 to 107
COc1cc(/C=C/C(=O)Nc2ccc(Br)cc2)ccc1F | 163 to 165
C=CCOc1ccc(OC[C@H]2CC[C@H](C=C)CC2)c(F)c1F | 27.3
CC(=O)Nc1ccc(C)c2c1C(=O)CCC2 | 92 to 94
CC(=O)NC(C)(C)c1ccc(CN2CCN(c3ccccc3)CC2)cc1 | 110 to 111
Cc1ccc(C(Cl)=NNc2ccccc2)cc1 | 133 to 134
Cc1cc(Cl)nc(S(C)(=O)=O)n1 | 72
O=C(Nc1ccc(C(F)(F)F)cc1)N1N=C2c3ccc(C(F)(F)F)cc3OC3CCCC1C23 (centres undefined) | 194 to 195
CC1(C)CCc2c(ccc3c2C(=O)C(Cl)=C(Cl)C3=O)O1 | 158 to 160
COc1ccc(N2C(=O)C3=C(CCCC3)C2CC(=O)N2CCCCC2)cc1 (centres undefined) | 101 to 102
NS(=O)(=O)c1ccc(-c2cnn(Cc3ccc(F)c(F)c3)c(=O)c2-c2ccc(F)cc2)cc1 | 253 to 255
OCCCc1cnoc1-c1ccc(F)c(Br)c1 | 57 to 58
CCCCCN(CC(=O)OC(C)(C)C)C(=O)C(CCC(=O)OC)CS(=O)(=O)c1ccc2ccccc2c1 (centres undefined) | 85 to 87
CCOC(=O)c1cnc2n(c1=O)CCC2 | 59 to 60
CC(=O)Oc1ccc2sc(S(N)(=O)=O)cc2c1 | 129 to 132
CC(C)(C)C(=O)Nc1ccc(O)cc1 | 168 to 170
COC(=O)c1ncc(C(=O)O)cc1Cl | 182 to 184
COC(=O)CCc1oc(=O)[nH]c1-c1ccc(C(F)(F)F)cc1 | 156 to 157
CCc1nc2ncnn2c(N)c1CCCCC(F)=C(F)F | 199
COC(=O)C1=C(C)NC(C)=C(C(=O)NCCOC(=O)N2CCC3(CC2)CC(=O)N(OC)C3=O)C1c1cccc([N+](=O)[O-])c1 (centres undefined) | 107 to 113
CC(C)n1nc(-c2cc(Br)c(N)nc2-c2ccccc2)ccc1=O | 174 to 176
CC1CCCN(c2cc3nc(C(C)(C)C)sc3cc2N=C=S)C1 (centres undefined) | 47 to 52
Cc1c(-c2cc(C(=O)OC(C)C)c(Cl)cc2F)nn(C)c1C(F)(F)F | 72
CCN1CCc2cc(S(=O)(=O)C[N+](=O)[O-])ccc21 | 122
O=C(CCCN1CCC2(CC(O)c3c(Cl)cccc32)C1)c1ccc(F)cc1 (centres undefined) | 161 to 163
COc1ccccc1Oc1c(Cl)ncnc1Cl | 79 to 80

— a melting point compilation (Tetko et al.; mined from patent text by program, amines drawn as free bases though some values may be those of a salt)
